Test results taken from US12508342B2, “Debridement composition” (priority 2020, dated 2025).

Legend:
[1] = Simulated wound matrix disruption on 96-peg lid, test solutions (Example 1); conditions: for efficacy relative to benzalkonium chloride, cocoamidopropyl betaine and Poloxamer 188 / efficacy in disrupting the simulated test wound matrix relative to SLS: 1% w/w; for % Difference in Efficacy (surfactants) / % Difference in Efficacy (chelators): 1% w/w solution, 37° C., 1 hour, absorbance at 595 nm, with respect to 1% w/w benzethonium chloride aqueous solution; for efficacy in disrupting the simulated test wound matrix relative to SLS: compared with SLS
Experimental: The following examples are prepared and evaluated using a simulated wound matrix composition. A wound matrix is prepared to contain:
The pegs are dipped into the simulated wound matrix and immediately transferred to a calcium chloride bath to achieve cross-linking. Solutions of test materials are prepared at 1% w/w in a 96 well microtiter plate. Following crosslinking, the pegs are inserted into the wells and incubated at 37° C. for 1 hour. Efficacy is characterised by the change in colour of the test solutions resulting from disruption of the stained material and is quantified by reading the absorbance of each solution at 595 nm. Results are presented with respect to a 1% w/w benzethonium chloride aqueous solution.

[2] = AKZO Nobel published values using modified Davies HLB group numbers; cited from earlier work

| Molecule | % Difference in Efficacy (surfactants) [1] | HLB Value [2] | % Difference in Efficacy (chelators) [1] | also measured |
| --- | --- | --- | --- | --- |
| CCCCCCCC/C=C\CCCCCCCC(=O)[O-].[Na+] [Sodium Oleate] | +996% | 10.55 |  | efficacy relative to benzalkonium chloride, cocoamidopropyl betaine and Poloxamer 188 [1]: an order of magnitude greater; efficacy in disrupting the simulated test wound matrix relative to SLS [1]: an order of magnitude greater |
| O=C([O-])CC(O)(CC(=O)[O-])C(=O)[O-].[Na+].[Na+].[Na+] [Tris-odium Citrate] |  |  | +1750% |  |
| O=C([O-])C(=O)[O-].[K+].[K+] [Potassium Oxalate] |  |  | +1350% |  |
| Poloxamer 188 [reference compound] | −90% | 3.4 |  |  |
| CCCCCCCCCCCCOS(=O)(=O)[O-].[Na+] [Sodium Dodecyl Sulphate, reference compound] | −99% | 33.0 |  |  |
| O=C(O)CC(O)(CC(=O)O)C(=O)O [Citric Acid] |  |  | +50% |  |
| Sodium Laureth-2 Sulphate | −30% | 15.3 |  |  |
| Benzalkonium Chloride [reference compound] | +60% |  |  |  |
| Di-sodium Lauryl Sulfosuccinate | +844% |  |  | efficacy relative to benzalkonium chloride, cocoamidopropyl betaine and Poloxamer 188 [1]: an order of magnitude greater; efficacy in disrupting the simulated test wound matrix relative to SLS [1]: an order of magnitude greater |
| O=P([O-])(O)O.[Na+] [Sodium Di-hydrogen Phosphate] |  |  | −70% |  |
| Cocoamidopropyl betaine | +120% |  |  |  |
